Read-outs that look alike come from different tables or passages of the source.
Experiments:
[1] = Cytotoxicity assay in stimulated PBMCs (ATP, CellTiter-Glo); type: cell-based; conditions: PBMCs stimulated with PHA and IL-2, ATP quantification
Protocol: (§1) SupT1 cells were plated at 100,000 per well in 96-well, white-walled plates with serial dilutions of test compound in a total volume of 100 μl RPMI-1640 medium containing 10% FBS and 0.5% DMSO. PBMCs were plated similarly at 50,000 cells/well and stimulated by addition of 40 μg/ml PHA and 80 ng/ml interleukin-2 (IL-2). Cells were incubated for 72 h at 37°C, 5% CO2. ATP was quantified using the CellTiter-Glo Luminescent Cell Viability Assay (Promega, Madison, WI) on a ViewLux microplate imager (Perkin Elmer, Waltham, MA). Percent cytotoxicity was determined relative to vehicle-only treated wells.

[2] = test system: IL-2 secretion by PBMCs; assay: IL-2 ELISA in PBMCs; type: cell-based, human; conditions: 24 h
Protocol: Cryopreserved PBMCs from a single donor were thawed in RPMI-1640 plus 10% FBS. PBMCs were plated at 5×10^4/well in 96-well plates and compound was added with a final concentration of 0.5% DMSO. Plates were incubated for 24 h at 37°C, 5% CO2. Interleukin-2 was quantified using Human IL-2 DuoSet ELISA (R&D Systems, Minneapolis, MN). Raw data were converted to ng/ml IL-2 using a standard curve obtained in parallel.

[3] = Cytotoxicity assay in SupT1 cells (ATP, CellTiter-Glo); type: cell-based; conditions: human; for selectivity ratio at 72 h: read-out: Selective window, CC50 versus EC2X
Protocol: as §1

[4] = test system: Kaposi's sarcoma associated herpesvirus (KSHV) in BCP-1 cells; assay: KSHV activation assay in BCP-1 cells (ORF50 qRT-PCR); type: cell-based; conditions: 24 h, up to 100 μM
[5] = test system: Caco-2 cells; assay: Caco-2 assay; type: in vitro ADME, human; conditions: 10 μM, 1 h, top to bottom chamber
Protocol: Caco-2 cells obtained from ATCC were plated on filters of a 24-well Boyden chamber and allowed to replicate for five days. Prior to initiating a study, the integrity of the cell layer was assessed by measuring the transepithelial electrical resistance (TEER) values. […] After 1h, medium was removed from the bottom chamber. After completion of the assay, the integrity of the cell layer was measured by transfer of the fluorescent dye, Lucifer yellow, across the cell layer. Samples taken from the apical chamber at the start of the study and from the basal chamber at the end of the study were assessed for drug levels using LC-MS/MS technology and used to calculate the apparent permeability (Papp).

[6] = Microsome assay, mouse liver microsomes; type: in vitro ADME
Protocol: Human and mouse liver microsomes were obtained from XenoTech, LLC (Kansas City, KS). The reaction mixture was composed of liver microsomes (0.5 mg/mL), 20 mM Tris-HCl pH 7.4, 2.5 mM MgCl2, and an NADPH generating system (0.1 mM NADP, 1.2 mM glucose-6-phosphate and 0.3 units/ml glucose-6-phophate dehydrogenase). […] Test compounds were added to the microsome reaction and loss of parent molecule was monitored after 1 h by LC/MS/MS.

[7] = Protein binding, human plasma (ultrafiltration); type: in vitro ADME; conditions: human, plasma, pH 7.4
[8] = test system: HIV-1 transcription in 24STNLSG cells; assay: SEAP assay in 24STNLSG cells (latency reactivation); type: cell-based; conditions: 72 h; for Max. fold induction, 24STNLSG: SEAP reporter; for EC2X, 24STNLSG: concentration for 2-fold increase in SEAP activity
Protocol: SupT1-derived 24STNLSG cells were plated at 100,000 cells/well in black bottom/black walled 96-well plates in 50 μl RPMI-1640 medium (without phenol red) containing 10% FBS. Compound was added in 50 μl of identical medium using three-fold dose-response dilutions, in duplicate. […] TNF-α, a nuclear factor-κB (NF-κB) activator known to induce HIV- expression in cellular models, was used as a positive control. Plates were incubated for 72 h at 37°C, 5% CO2. Plates were then sealed and heated to 65°C for 30 min. Plates were brought to room temperature and 50 μl assay buffer (1 mM MgCl2, 10 mM L-homoarginine, 1 M diethylamine hydrochloride) was added to each well and incubated for 5 min at room temperature. To each well, 50 μl of CSPD Substrate (0.4 mM Ready-to-Use with Sapphire-II Enhancer; Applied Biosystems, Foster City, CA) was added. Plates were incubated for 20 min at room temperature and read on a ViewLux microplate imager (Perkin Elmer, Waltham, MA). Curves were fit by non-linear regression using Prism software (GraphPad, San Diego, CA).

[9] = Protein binding, mouse plasma (ultrafiltration); type: in vitro ADME; conditions: mouse, plasma, pH 7.4
Protocol: Binding of test compound to plasma proteins was estimated by incubation of test compounds with mouse or human plasma. Human plasma was obtained from BioreclamationIVT (Westbury, NY). […] After a 15 min incubation at 37°C, triplicate aliquots of the incubation mixtures were transferred to a Millipore Multiscreen Ultracel-10 filter plate (10 kDa molecular mass cut off, EMD Millipore, Billerica, MA). The plate was centrifuged for 60 min at 3000 × g and 37°C. After centrifugation, aliquots of both the ultrafiltrates as well as the incubation mixtures prior to ultrafiltration were analyzed by LC-MS/MS to quantify the concentrations of test compound and reference compounds.

[10] = test system: HeLa nuclear extracts, HDAC1, HDAC2, HDAC3, HDAC8; assay: HDAC inhibition assay (fluorometric); type: biochemical; conditions: 10 μM
Protocol: HDAC inhibition was determined using HDAC Fluorometric Activity Assay/Drug Discovery Kit (BIOMOL International, Inc.) according to the manufacturer’s recommendations. HeLa cell nuclear extracts and purified HDACs 1, 2, 3, and 8 were obtained from BIOMOL. Briefly, HDAC inhibitors and test compounds were diluted to 5× concentration in assay buffer in a white, flat-bottom 96-well plate. HDAC samples (purified HDAC or HeLa nuclear extract) were diluted to the desired concentration in assay buffer and added to each well. HeLa extract was employed at a 150-fold dilution, while individual HDACs were tested at 0.3–9 μg/ml. Fluor de Lys™ substrate was diluted to 2× concentration in assay buffer and the HDAC reaction was initiated by addition of substrate to each well followed by incubation for 60 min at room temperature. A final concentration of 0.4% DMSO and 50 μM Fluor de Lys™ substrate was present in all samples. Samples with no enzyme were used as blanks and vehicle-only samples were used as negative controls. HDAC reactions were quenched by adding Fluor de Lys™ developer containing 2 μM trichostatin A. Plates were incubated at room temperature for 15 min prior to reading fluorescence for 0.1 s with an excitation wavelength of 360 nm and emission of 460 nm using a 5 nm slit on a Cary Eclipse Fluorescence Spectrophotometer (Varian, Inc.). […]

[11] = SupT1 cells, ATP quantification, 72 h, read-out: CC50, SupT1

Nc1ccc2[nH]c(-c3ccc(-c4nc5cc(N)ccc5o4)cc3)nc2c1 [Compound 1, 2-(4-(5-amino-1H-benzimidazol-2-yl)phenyl)benzoxazol-5-amine]
CC50 at 72 h [1]: 18 ± 6.8 µM | IL-2 secretion by PBMCs (in words) [2]: neither Compound 1 nor 2 increased secretion of IL-2 | CC50 at 72 h [3, 11]: 5.2 ± 1.1 µM | selectivity ratio at 72 h ([3]; SupT1 cells, with regards to respective EC2X (SEAP reporter)): ≥ 3 | CC50 at 72 h ([3]; T cells (SupT1) and PBMCs, read-out: CC50 across cytotoxicity assays): 5 to 18 µM | Effect on ORF50 mRNA (KSHV) [4]: little effect | Caco-2 Papp [5]: 38 10^−6 cm/s | Caco-2 Papp ([5]; listed as compound 1): 4.8 10^−6 cm/s | MLM stability (% loss of parent compound at 1 h) [6]: 28% | fraction unbound at 15 min, 10 μM [7]: < 0.01 | Max. fold induction, 24STNLSG [8]: up to 80 fold | Max. fold induction, 24STNLSG ([8]; listed as Cmpd 1): 80 fold | EC2X, 24STNLSG [8]: 1.5 ± 0.7 µM | fraction unbound at 15 min, 10 μM [9]: < 0.03 | HDAC inhibitory activity (in words) [10]: no HDAC inhibitory activity

Nc1ccc2[nH]c(-c3ccc(-c4nc5ccc(N)cc5o4)cc3)nc2c1 [Compound 2]
CC50 at 72 h [1]: > 100 µM | IL-2 secretion by PBMCs (in words) [2]: neither Compound 1 nor 2 increased secretion of IL-2 | CC50 at 72 h [3, 11]: > 100 µM | selectivity ratio at 72 h ([3]; SupT1 cells): ≥ 3 | Effect on ORF50 mRNA (KSHV) [4]: little effect | Caco-2 Papp [5]: 4.8 10^−6 cm/s | Caco-2 Papp ([5]; listed as compound 2): 38 10^−6 cm/s | MLM stability (% loss of parent compound at 1 h) [6]: 53% | fraction unbound at 15 min, 10 μM [7]: < 0.003 | Max. fold induction, 24STNLSG [8]: 76 fold | EC2X, 24STNLSG [8]: 2.7 ± 2.3 µM | fraction unbound at 15 min, 10 μM [9]: < 0.025 | HDAC inhibitory activity (in words) [10]: no HDAC inhibitory activity

Source: PMC5489165, “Identification of benzazole compounds that induce HIV-1 transcription” (PLoS ONE, 2017)
